Source: patent publication US10280170B2, “Substituted 4,5,6,7-tetrahydro-pyrazolo[1,5-a]pyrazine derivatives and 5,6,7,8-tetrahydro-4H-pyrazolo[1,5-a][1,4]diazepine derivatives as Ros1 inhibitors” (Janssen Pharmaceutica NV, priority 2014, dated 2019)
Where two headings read alike, the source gives them in different places.

How the values were obtained:
[1] = biological target: T1, Ba/F3 cells containing Ros1 wild-type protein (Homo sapiens, UniProt P08922, cells depend on it, form not given); experiment: Ba/F3-Ros1 cell proliferation assay, wild-type Ros1; format: cell-based, murine; conditions: without IL-3
T1 construct: The background only speaks of 'a number of different unrelated proteins' and names SLC34A2-ROS1 for HCC78 cells
T1 sequence (P08922 whole entry, stated change not applied): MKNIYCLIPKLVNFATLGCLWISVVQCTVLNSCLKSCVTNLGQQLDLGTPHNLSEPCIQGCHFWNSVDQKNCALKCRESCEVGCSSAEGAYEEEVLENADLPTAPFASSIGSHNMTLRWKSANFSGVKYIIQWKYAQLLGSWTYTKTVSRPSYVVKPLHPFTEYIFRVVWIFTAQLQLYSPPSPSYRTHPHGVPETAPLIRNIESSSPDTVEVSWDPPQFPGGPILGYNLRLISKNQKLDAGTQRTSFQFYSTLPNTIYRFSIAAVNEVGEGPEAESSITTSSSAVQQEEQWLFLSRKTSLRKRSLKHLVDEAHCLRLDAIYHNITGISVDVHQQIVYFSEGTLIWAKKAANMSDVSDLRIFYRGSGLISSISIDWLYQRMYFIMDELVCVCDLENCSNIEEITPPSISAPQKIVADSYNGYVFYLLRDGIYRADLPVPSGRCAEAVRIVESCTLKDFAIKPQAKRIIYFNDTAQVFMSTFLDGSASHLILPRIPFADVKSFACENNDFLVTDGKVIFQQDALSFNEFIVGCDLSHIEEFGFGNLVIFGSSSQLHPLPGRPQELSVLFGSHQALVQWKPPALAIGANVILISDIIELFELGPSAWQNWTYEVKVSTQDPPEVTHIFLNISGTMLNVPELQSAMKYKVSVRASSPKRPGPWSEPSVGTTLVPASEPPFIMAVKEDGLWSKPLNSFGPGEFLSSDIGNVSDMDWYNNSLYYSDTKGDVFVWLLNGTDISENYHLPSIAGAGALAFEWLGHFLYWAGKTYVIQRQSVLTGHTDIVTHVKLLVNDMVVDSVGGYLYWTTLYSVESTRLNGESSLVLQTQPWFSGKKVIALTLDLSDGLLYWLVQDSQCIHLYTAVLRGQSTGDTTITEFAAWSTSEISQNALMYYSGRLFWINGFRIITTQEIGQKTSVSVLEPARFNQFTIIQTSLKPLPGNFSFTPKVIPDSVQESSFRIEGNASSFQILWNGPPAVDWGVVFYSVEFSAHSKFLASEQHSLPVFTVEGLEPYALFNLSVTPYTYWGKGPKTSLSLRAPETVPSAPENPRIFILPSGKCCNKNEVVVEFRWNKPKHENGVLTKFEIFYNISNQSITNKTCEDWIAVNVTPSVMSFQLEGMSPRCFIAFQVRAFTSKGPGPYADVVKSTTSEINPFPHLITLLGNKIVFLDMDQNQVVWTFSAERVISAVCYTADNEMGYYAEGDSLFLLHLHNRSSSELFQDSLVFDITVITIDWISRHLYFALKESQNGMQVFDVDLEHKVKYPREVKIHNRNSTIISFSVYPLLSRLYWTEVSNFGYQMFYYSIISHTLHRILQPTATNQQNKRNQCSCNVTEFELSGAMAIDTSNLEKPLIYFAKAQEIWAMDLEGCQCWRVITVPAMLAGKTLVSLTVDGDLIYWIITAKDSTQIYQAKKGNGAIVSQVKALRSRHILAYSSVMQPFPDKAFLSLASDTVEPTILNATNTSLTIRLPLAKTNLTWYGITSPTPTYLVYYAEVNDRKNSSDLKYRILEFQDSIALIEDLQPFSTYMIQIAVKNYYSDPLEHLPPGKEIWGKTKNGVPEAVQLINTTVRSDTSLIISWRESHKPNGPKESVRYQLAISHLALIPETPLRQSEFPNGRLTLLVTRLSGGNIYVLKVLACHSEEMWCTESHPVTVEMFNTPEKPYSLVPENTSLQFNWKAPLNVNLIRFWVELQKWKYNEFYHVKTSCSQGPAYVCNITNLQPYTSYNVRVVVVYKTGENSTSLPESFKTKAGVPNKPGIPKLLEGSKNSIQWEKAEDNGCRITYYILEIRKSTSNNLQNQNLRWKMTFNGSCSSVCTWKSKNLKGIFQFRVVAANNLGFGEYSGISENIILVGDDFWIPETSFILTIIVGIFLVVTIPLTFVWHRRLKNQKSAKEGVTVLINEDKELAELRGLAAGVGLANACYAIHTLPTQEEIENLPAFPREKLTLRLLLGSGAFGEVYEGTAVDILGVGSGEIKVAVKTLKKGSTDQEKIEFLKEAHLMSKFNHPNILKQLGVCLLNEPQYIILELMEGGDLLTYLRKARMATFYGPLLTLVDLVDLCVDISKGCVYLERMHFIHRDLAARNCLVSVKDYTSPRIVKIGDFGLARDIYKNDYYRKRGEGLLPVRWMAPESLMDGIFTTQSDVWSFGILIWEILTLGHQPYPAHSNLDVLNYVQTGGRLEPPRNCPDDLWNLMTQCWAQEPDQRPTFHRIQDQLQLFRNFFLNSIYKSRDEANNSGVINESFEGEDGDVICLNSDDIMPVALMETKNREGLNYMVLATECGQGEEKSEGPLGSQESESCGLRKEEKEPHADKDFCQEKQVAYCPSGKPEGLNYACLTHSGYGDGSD
Outline: (§1)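 Alamar Blue read-out (resazurin, ex. 540 nm, em. 590 nm, 4 h at 37 °C) after 24 h compound exposure of 20000 Ba/F3-Ros1 cells per well. Cells carry WT, gatekeeper L2026M or crizotinib-resistant G2032R Ros1; medium RPMI-1640, 10% FBS, 2 mM L-Glutamine.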

[2] = test system: HCC78 non-small cell lung cancer cells; experiment: HCC78 cell proliferation assay; format: cell-based; conditions: for HCC-78 PROL pEC50: HCC78 cells, 4 days, MTT; for EC50: Homo sapiens, HCC78, 96 h, read-out: HCC-78 PROL pEC50 (converted)
Outline: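 HCC78 NSCLC cells (~1000/well) in RPMI-1640 with 10% FBS were treated 24 h after seeding and exposed to compound for 4 days at 37 °C. Viability was read by MTT, with absorbance at 538 nm after DMSO/glycine solubilization.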

[3] = test system: Ba/F3 cells containing Ros1 wild-type protein + IL-3; experiment: Ba/F3-Ros1 cell proliferation counter-screen, wild-type protein in the presence of 10 ng/ml murine IL-3; format: cell-based; conditions: Mus musculus, BaF3, 24 h, read-out: BaF3-ROS1 + IL3 pIC50 (converted)
Outline: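 Compounds were dispensed from DMSO into plates, and 20000 Ba/F3 cells carrying wild-type Ros1 were added in phenol red-free RPMI-1640 with 10% FBS plus 10 ng/ml murine IL-3. After 24 h at 37 °C, Alamar Blue was added for 4 h and fluorescence recorded.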

Ros1 enzyme = biological target: T2, Ros1 enzyme (Homo sapiens, UniProt P08922); experiment: Ros1 enzymatic assay; format: biochemical; conditions: Ros1 enzymatic assay; read-out: ROS1 pIC50 (converted)
T2 construct: 0.5 μg/ml Ros1 enzyme
T2 sequence (P08922 28-2347): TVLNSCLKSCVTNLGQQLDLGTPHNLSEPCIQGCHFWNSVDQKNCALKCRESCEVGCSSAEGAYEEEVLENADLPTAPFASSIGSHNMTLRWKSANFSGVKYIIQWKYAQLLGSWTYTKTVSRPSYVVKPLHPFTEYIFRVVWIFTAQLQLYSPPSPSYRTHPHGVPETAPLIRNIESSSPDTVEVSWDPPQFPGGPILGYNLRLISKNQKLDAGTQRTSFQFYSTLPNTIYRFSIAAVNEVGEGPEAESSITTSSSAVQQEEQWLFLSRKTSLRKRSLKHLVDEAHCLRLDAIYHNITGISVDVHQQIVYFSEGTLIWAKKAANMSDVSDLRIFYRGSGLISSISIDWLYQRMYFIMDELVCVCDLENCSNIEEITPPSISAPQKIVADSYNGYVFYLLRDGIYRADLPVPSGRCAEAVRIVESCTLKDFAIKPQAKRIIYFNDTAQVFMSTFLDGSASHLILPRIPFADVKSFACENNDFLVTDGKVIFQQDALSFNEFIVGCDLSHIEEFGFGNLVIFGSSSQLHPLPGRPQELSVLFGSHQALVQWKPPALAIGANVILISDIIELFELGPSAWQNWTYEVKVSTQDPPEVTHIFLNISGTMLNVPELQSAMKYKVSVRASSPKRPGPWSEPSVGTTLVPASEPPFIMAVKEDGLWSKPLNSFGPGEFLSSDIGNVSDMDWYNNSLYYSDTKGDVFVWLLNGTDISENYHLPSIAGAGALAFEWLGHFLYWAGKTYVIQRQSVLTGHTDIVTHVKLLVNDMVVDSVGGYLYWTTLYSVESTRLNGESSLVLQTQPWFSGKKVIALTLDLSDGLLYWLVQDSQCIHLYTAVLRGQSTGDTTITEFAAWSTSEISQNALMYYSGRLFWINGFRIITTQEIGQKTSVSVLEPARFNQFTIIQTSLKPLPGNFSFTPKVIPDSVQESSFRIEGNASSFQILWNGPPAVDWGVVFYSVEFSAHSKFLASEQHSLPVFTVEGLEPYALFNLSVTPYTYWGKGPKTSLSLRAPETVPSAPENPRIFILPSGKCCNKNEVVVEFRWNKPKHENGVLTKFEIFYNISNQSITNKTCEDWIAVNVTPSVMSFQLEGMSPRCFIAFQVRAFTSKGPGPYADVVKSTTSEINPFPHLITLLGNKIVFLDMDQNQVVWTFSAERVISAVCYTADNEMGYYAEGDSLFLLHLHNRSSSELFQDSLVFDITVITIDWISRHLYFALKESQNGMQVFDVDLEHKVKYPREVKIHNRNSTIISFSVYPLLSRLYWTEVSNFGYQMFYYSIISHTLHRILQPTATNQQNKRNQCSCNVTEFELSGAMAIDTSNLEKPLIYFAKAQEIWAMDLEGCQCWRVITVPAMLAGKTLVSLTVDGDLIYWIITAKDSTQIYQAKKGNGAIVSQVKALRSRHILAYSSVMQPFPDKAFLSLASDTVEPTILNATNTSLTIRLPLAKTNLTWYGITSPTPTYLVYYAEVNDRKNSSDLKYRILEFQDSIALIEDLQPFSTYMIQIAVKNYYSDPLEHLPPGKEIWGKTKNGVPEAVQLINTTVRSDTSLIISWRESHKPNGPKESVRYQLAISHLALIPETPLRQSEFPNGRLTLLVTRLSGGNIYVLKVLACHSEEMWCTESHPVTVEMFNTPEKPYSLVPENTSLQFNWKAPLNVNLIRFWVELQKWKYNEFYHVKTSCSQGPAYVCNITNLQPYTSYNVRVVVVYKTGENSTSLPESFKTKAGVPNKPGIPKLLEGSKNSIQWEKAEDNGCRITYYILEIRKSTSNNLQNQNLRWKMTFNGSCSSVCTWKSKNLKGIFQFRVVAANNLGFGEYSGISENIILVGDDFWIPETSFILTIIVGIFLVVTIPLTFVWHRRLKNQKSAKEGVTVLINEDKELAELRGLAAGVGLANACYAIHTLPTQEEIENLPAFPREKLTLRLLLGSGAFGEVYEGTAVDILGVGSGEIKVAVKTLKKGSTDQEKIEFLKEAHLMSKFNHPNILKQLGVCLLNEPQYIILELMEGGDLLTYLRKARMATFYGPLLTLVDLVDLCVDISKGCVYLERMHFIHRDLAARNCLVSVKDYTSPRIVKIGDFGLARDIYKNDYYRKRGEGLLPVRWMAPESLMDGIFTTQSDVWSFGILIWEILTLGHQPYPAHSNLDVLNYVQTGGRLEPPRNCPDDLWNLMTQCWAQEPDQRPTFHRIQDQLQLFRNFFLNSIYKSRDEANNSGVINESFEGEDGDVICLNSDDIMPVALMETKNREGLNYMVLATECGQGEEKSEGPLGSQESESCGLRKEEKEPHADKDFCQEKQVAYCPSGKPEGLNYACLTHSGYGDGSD
Outline: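 First, compounds meet Ros1 enzyme mix plus substrate mix containing IRS-Tide and 33P-labelled ATP at 20 μM. Next, incubation lasts 120 minutes at room temperature. Then EDTA stop buffer with streptavidin beads is added for 15 minutes, and bead-bound radioactivity is imaged.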

[4] = biological target: Ba/F3 cells containing Ros1 with a mutation at the gatekeeper residue (L2026M) (Homo sapiens, UniProt P08922, L2026M, cells depend on it, form not given); experiment: Ba/F3-Ros1 cell proliferation assay, L2026M gatekeeper mutant; format: cell-based, murine; conditions: without IL-3
Sequence of Ba/F3 cells containing Ros1 with a mutation at the gatekeeper residue (L2026M) (P08922 whole entry L2026M, form open): as the sequence (P08922 whole entry, stated change not applied) above, with L2026M counted along it
Outline: as §1

[5] = counter-screen, wild-type, 10 ng/ml murine IL-3

Row | SMILES | BaF3-ROS1-IL3 pIC50 [1] | melting point | HCC-78 PROL pEC50 [2] | CC50 [3, 5] | IC50 (Ros1 enzyme) | Ba/F3 Ros1 L2026M (-IL-3) pIC50 [4] | EC50 [2] | CC50 [3]
1 | CC(C)c1ccc(C(C)Oc2ccc(-c3c(-c4ccncc4)nn4c3C(=O)N(CCO)CC4)cc2)cc1 (stereo not drawn) [Compound 144] | 6.3 | 148 °C | 5.0 | > 10000 nM | 1260 nM | 5.7 |  | 
2 | CC(C)(O)c1ccc(COc2ccc(-c3c(-c4ccncc4)nn4c3C(=O)N(CCO)CC4)cc2)cc1 [Compound 115] | 6.3 | 193 °C |  |  | 1260 nM | <5 | 1580 nM | > 10000 nM
3 | CC(C)(C#N)c1ccc(COc2ccc(-c3c(-c4ccncc4)nn4c3C(=O)N(CCO)CC4)cc2)cc1 [Compound 122] | 6.9 | 199 °C |  |  | 126 nM | 7.1 | 63.1 nM | > 10000 nM
4 | CC(C)c1ccc(COc2ccc(-c3c(-c4ccncc4)nn4c3CN(CC(=O)NCCO)CC4)cc2)cc1 [Compound 175] | 6.9 | 189 °C |  |  | 100 nM | 6.8 | 398 nM | 5010 nM
5 | CC(C)c1ccc(COc2ccc(-c3c(-c4ccncc4)nn4c3C(=O)NCC4)c(F)c2F)cc1 [Compound 16] | 7.4 | 214 °C |  |  | 100 nM | 7.1 | 398 nM | > 10000 nM
6 | CC(C)c1ccc(COc2ccc(-c3c(-c4ccncc4)nn4c3C(=O)N(CC(O)CO)CC4)cc2)cc1 (stereo not drawn) [Compound 43] | 7.4 | 190 °C | 6.9 | > 10000 nM | 50.1 nM | 7.3 |  | 
7 | CC(C)c1ccc(COc2ccc(-c3c(-c4ccncc4)nn4c3C(=O)N(CC(=O)N(C)C)CC4)cc2)cc1 [Compound 64] | 7.1 | 199 °C |  |  | 79.4 nM | 6.6 | 631 nM | > 10000 nM
8 | CC(C)c1ccc(COc2ccc(-c3c(-c4ccncc4)nn4c3C(=O)NCC4)cc2Cl)cc1 [Compound 25] | 6.8 | 251 °C |  |  | 126 nM | 6.5 | 501 nM | > 10000 nM
9 | CC(C)c1ccc(COc2ccc(-c3c(-c4ccncc4)nn4c3C(=O)NCC4)c(C#N)c2)cc1 [Compound 27] | 7.7 | 268 °C |  |  | 15.8 nM | 7.1 | 20 nM | > 10000 nM
10 | CCC(C)c1ccc(COc2ccc(-c3c(-c4ccncc4)nn4c3C(=O)N(CCO)CC4)cc2)cc1 (stereo not drawn) [Compound 107] | 7.7 | 163 °C |  |  | 20 nM | 7.4 | 79.4 nM | > 10000 nM
11 | O=C1c2c(-c3ccc(OCc4ccc(C5CC5)cc4)cc3)c(-c3ccncn3)nn2CCN1CCO [Compound 167] | 7.2 | 170 °C |  |  | 126 nM | 6.2 | 501 nM | > 10000 nM
12 | CC(C)c1ccc(COc2ccc(-c3c(-c4ccncc4)nn4c3C(=O)N(CCO)CC4)cc2)c(F)c1 [Compound 92] | 7.2 | 132 °C |  |  | 50.1 nM | 6.7 | 200 nM | > 10000 nM
